This note sets out measurements from ChEMBL document CHEMBL3430912, “GSK Tres Cantos Anti-Kinetoplastid Screening (TCAKS) Data”.

Structures are written as SMILES.

In data set [1] the test system is Trypanosoma cruzi. In words: (§1) GSK_TCAKS: pIC50 Trypanosoma cruzi Imaging: Infected Cells. […] Cells were then washed once with PBS before infection. T. cruzi trypomastigotes, collected at days 5 to 8 after infection from LLC-MK2 parasite infected cultures, were allowed to swim out for 4h at 37C from a centrifuged pellet (2,500 rpm/10 min/room temperature). Trypomastigotes were then collected and counted in a CASY Cell Counter. Trypomastigotes, in supplemented DMEM, were added to H9c2 cultures in a multiplicity of infection of 1 and incubated for 18 h. Cells were washed once with PBS before incubation of the infected H9c2 monolayer with trypsin (Life-Technologies) to detach cells from the flask. Cells were counted in a CASY Cell Counter using a 150 um capillary and their density set at 5 * 10^4 cells per mL in supplemented assay DMEM. Infected H9c2 were dispensed into 384-well poly-lysine coated assay plates at 50uL per well using a Multidrop Combi dispenser. After seeding them, the plates were incubated at 37C, 5% CO2 for 72h. Cultures were then fixed and stained by addition of 50 uL of a solution containing 8% formaldehyde and 4 uM DRAQ5 DNA dye (BioStatus, UK) per well. […] Five images were collected per well for reliable statistical analysis. Automated image analysis was performed with a script developed on Acapella High Content Imaging and Analysis Software (PerkinElmer). Output: percentage of infected cells per well as a second infection marker. The format is functional, organism-based, Rattus norvegicus. The settings on record: H9c2, 4 h.

Data set [2] relates to Trypanosoma brucei brucei. In words: GSK_TCAKS: pIC50 Trypanosoma brucei viability assay using fluorescence intensity. Assay plates (1536-well) were prepared by dispensing 25nL of compound solution per well using an Echo acoustic dispenser (Labcyte). The format is functional, organism-based. The settings on record: Lister 427, 2 h.
The test system of data set [3] is Leishmania donovani. The experiment in a line: GSK_TCAKS: pIC50 Leishmania donovani Imaging: Infected Macrophages. Assay plates (384-well) were prepared by adding 250nL of compound to each well. For single shot assay, the final compound concentration was 5 uM. […] Automated image analysis was performed with a script developed on Acapella High Content Imaging and Analysis Software (PerkinElmer). Output: Percent of infected macrophage cells were reported for each well. The data set is classed as functional, organism-based, Homo sapiens. As to conditions: THP-1.

Data set [4] can be described thus: GSK_TCAKS: pIC50 HepG2 human cell line viability assay using luminiscence. […] Seeding density was checked to ensure that new mono-layers were not more than 50% confluent at the time of harvesting. Cell suspension was added to 500 mL of the same medium at a final density of 1.2 * 10^5 cells/mL. This cell suspension was dispensed (25 uL, 3000 cells per well) into 384-well clear-bottom plates using a Multidrop Combi dispenser. Prior to addition of the cell suspension, the screening compounds (250 nL) were pre-dispensed into the plates with an Echo liquid handler. Plates were incubated for 48 h at 37C, 5% CO2. After incubation, plates equilibrated at room temperature for 30 min before proceeding to develop the luminescent signal. The signal developer, CellTiter-Glo Reagent, was allowed to equilibrate at room temperature for 30 min and added to the plates (25uL per well) using a Multidrop Combi dispenser. Plates were left for 10 min at room temperature for stabilization and then read using a ViewLux. The format is toxicity, cell-based. In general terms: In ATP-based viability assays light output follows the ATP content of the culture.

In data set [5] the test system is Trypanosoma cruzi. The experiment in a line: GSK_TCAKS: pIC50 Trypanosoma cruzi Imaging: Amastigotes/Cell. […] Cells were then washed once with PBS before infection. T. cruzi trypomastigotes, collected at days 5 to 8 after infection from LLC-MK2 parasite infected cultures, were allowed to swim out for 4h at 37C from a centrifuged pellet (2,500 rpm/10 min/room temperature). Trypomastigotes were then collected and counted in a CASY Cell Counter. Trypomastigotes, in supplemented DMEM, were added to H9c2 cultures in a multiplicity of infection of 1 and incubated for 18 h. Cells were washed once with PBS before incubation of the infected H9c2 monolayer with trypsin (Life-Technologies) to detach cells from the flask. Cells were counted in a CASY Cell Counter using a 150 um capillary and their density set at 5 * 10^4 cells per mL in supplemented assay DMEM. Infected H9c2 were dispensed into 384-well poly-lysine coated assay plates at 50uL per well using a Multidrop Combi dispenser. After seeding them, the plates were incubated at 37C, 5% CO2 for 72h. Cultures were then fixed and stained by addition of 50 uL of a solution containing 8% formaldehyde and 4 uM DRAQ5 DNA dye (BioStatus, UK) per well. […] Five images were collected per well for reliable statistical analysis. Automated image analysis was performed with a script developed on Acapella High Content Imaging and Analysis Software (PerkinElmer). Output: number of amastigotes per cell as infection level measurement. The settings on record: H9c2, 4 h. The data set is classed as functional, organism-based, Rattus norvegicus.

Data set [6] relates to Leishmania donovani. In words: GSK_TCAKS: pIC50 Leishmania donovani Imaging: THP-1 Host Macrophages. Assay plates (384-well) were prepared by adding 250nL of compound to each well. For single shot assay, the final compound concentration was 5 uM. […] Automated image analysis was performed with a script developed on Acapella High Content Imaging and Analysis Software (PerkinElmer). Output: THP-1 cell count were reported for each well. The format is functional, organism-based, Homo sapiens.

For data set [7], the system named is Trypanosoma cruzi. The data set is described as §1, with “H2C9” for “Trypanosoma cruzi”, “H9c2 Host Cardiomyocytes.” for “Infected Cells.”, “Number” for “percentage”, “H9c2 Host Cardiomyocytes nuclei to determine drug-related cytotoxicity.” for “infected cells per well as a second infection marker.”. As to conditions: H9c2, 4 h. The data set is classed as functional, organism-based, Rattus norvegicus.

Another data set concerns NIH3T3. In words: GSK_TCAKS: pIC50 NIH 3T3 cell line viability assay using luminiscence. Tissue culture surface treated assay plates (1536-well) were used. […] The 100% cells survival control was determined exposing the host-cells to a 0.5% DMSO concentration, whereas the 100% toxicity control was achieved by seeding the cells in presence of Amphotericin B at 50uM. Plates were incubated for four days at 37C, 5% CO2. The assay readout was developed by addition of 5uL of CellTiter-Glo Reagent following the manufacturer's instructions. Luminiscence was measured using a ViewLux. The data set is classed as functional, cell-based. As to conditions: Mus musculus, NIH3T3, 96 h.

For data set [8], the system named is Trypanosoma brucei brucei. In words: GSK_TCAKS: pIC50 Trypanosoma brucei viability assay using luminiscence. Assay plates (1536-well) were prepared. T. brucei cultures were harvested and counted in a CASY cell counter. A parasite suspension was prepared at a final concentration of 5 * 10^4 cells/mL in complete HMI9 medium and 6uL was dispensed to all wells containing compounds using a Multidrop Combi dispenser. 6uL of HMI9 media with 0.4% DMSO were dispensed to control columns. Plates were incubated for 24 h at 37C, 5% CO2 then tempered for 10 min at room temperature. ATP content was quantified by adding 4 uL of CellTiter-Glo Reagent (Promega) according to the manufacturer's instructions. Luminescence was measured using a ViewLux. The format is functional, organism-based. As to conditions: Lister 427, CASY.

Data set [9] deals with Sterol 14-alpha demethylase (Trypanosoma cruzi (strain CL Brener), UniProt Q7Z1V1). The experiment in a line: GSK_TCAKS: pIC50 CYP51 from Trypanosoma cruzi. The format is functional.
Data set [10] concerns Leishmania donovani. The experiment in a line: GSK_TCAKS: pIC50 Leishmania donovani Imaging: Amastigotes/Macrophages. Assay plates (384-well) were prepared by adding 250nL of compound to each well. For single shot assay, the final compound concentration was 5 uM. […] Automated image analysis was performed with a script developed on Acapella High Content Imaging and Analysis Software (PerkinElmer). Output: Average number of amastigotes per macrophage cell were reported for each well. The data set is classed as functional, organism-based, Homo sapiens. The settings on record: THP-1.

Data set [11] has as its system Leishmania donovani. In words: GSK_TCAKS: pIC50 Leishmania donovani viability assay using fluorescence intensity. Assay plates (1536-well) were prepared by adding 30nL per well of compound. For single shot assay, the final compound concentration was 5uM. […] Briefly, eGFP LdBOB axenic amastigotes were harvested, fixed and counted in a CASY cell counter (Roche-Applied Science). A final concentration of 1.5 * 10^5 cells per well were prepared in amastigote media containing 500 U/mL penicillin/streptomycin (Invitrogen) and 6uL was dispensed to each experimental well using a Multidrop Combi dispenser (Thermo Scientific). 6uL of assay media was dispensed to control columns used as reference for 100% compound response. Following incubation for 72 h at 37C, 5% CO2, 2 uL of resazurin was added to each well at a final concentration of 0.5 mM in phosphate buffered saline (PBS) with IGEPAL (Sigma-Aldrich), 0.05% (v/v). The format is functional, organism-based. Background: The colour change of resazurin is a common sign of viable cells or microbes.

Data set [12] relates to Trypanosoma cruzi. In words: GSK_TCAKS: pIC50 Trypanosoma cruzi viability assay using beta-GAL activity. This assay was run at single shot at 5uM compound concentration per well. The biological reagents consisted of NIH-3T3 host cells and trypomastigotes parasitic cells; both cell types were set to a 3.3 * 10^5 cells/mL dilution in assay DMEM by means of a CASY cell counter device using a 60um capillary. 6 uL of the mixture were dispensed per well (about 1 * 10^3 host-cells and 1 * 10^3 parasites) with a Multidrop Combi dispenser. […] In all wells, the percentage of DMSO never exceeded 0.5%. Plates incubated for four days at 37C, 5% CO2. The substrate used for the assay fluorescence intensity (FLINT) readout was resorufin-beta-D-galactopiranoside (Sigma-Aldrich) at 5uM per well. It was diluted in PBS supplemented with the soft detergent Igepal (Fluka). The settings on record: Tulahuen, NIH3T3. The format is functional, organism-based, Mus musculus.

Sterol 14-alpha demethylase, sequence (Q7Z1V1 whole entry): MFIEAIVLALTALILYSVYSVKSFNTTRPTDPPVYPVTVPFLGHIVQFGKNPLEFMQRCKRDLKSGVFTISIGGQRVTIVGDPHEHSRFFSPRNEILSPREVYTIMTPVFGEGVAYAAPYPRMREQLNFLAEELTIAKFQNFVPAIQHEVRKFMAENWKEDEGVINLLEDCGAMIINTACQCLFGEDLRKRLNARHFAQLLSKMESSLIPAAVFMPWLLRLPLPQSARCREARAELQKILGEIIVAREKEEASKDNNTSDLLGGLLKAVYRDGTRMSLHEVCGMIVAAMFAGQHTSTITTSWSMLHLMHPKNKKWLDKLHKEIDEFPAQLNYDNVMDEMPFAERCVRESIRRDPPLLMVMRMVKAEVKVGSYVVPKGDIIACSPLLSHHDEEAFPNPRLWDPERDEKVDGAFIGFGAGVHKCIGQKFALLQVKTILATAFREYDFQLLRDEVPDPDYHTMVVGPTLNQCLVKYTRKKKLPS

The IC50 is the concentration at which inhibition is half-maximal. Consider `CC(C)(C)C(Cn1ccnc1)NC(=O)c1ccc2nc(C3CC3)oc2c1` (stereo not given), for which the IC50 in the data set with Trypanosoma cruzi [1] was 0.1 µM; in [2] it was greater than 39.8 µM; with Leishmania donovani [3], greater than 50.1 µM; in the data set with Trypanosoma cruzi [5], 0.0794 µM; in the data set with Leishmania donovani [6], 15.8 µM; in the data set on Trypanosoma cruzi [7] it was greater than 50.1 µM. Further, the IC50 in the data set on NIH3T3 was greater than 50.1 µM; in [8] it was greater than 39.8 µM; in data set [9], 0.1 µM; with Leishmania donovani [10], greater than 50.1 µM; in the data set with Leishmania donovani [11], 20 µM; in the data set with Trypanosoma cruzi [12], 0.1 µM. This compound gave a half-maximal inhibitory concentration (IC50) at 48 h in [4] greater than 100 µM.
Take `O=C(NCC(c1cccnc1)N1CCc2ccccc2C1)C(=O)Nc1cccc(Cl)c1` (stereo not given): the IC50 is 0.0794 µM in the data set on Trypanosoma cruzi [1]; 15.8 µM in data set [2]; greater than 50.1 µM in the data set with Leishmania donovani [3]; 0.0631 µM in the data set with Trypanosoma cruzi [5]; greater than 50.1 µM in the data set on Leishmania donovani [6]; 25.1 µM with Trypanosoma cruzi [7]. For the same compound, the IC50 in the data set with NIH3T3 is 25.1 µM; in [8], 20 µM; in data set [9], 0.0631 µM; in the data set on Leishmania donovani [10] it was greater than 50.1 µM; in the data set with Leishmania donovani [11], 1.26 µM; in the data set with Trypanosoma cruzi [12], 0.2 µM. The compound also showed an IC50 at 48 h in data set [4] greater than 100 µM.
For the compound `CCCN(Cc1ccc(OC)c(OC)c1)Cc1cc(=O)c2c(C)cc(C)cc2[nH]1`, the IC50 in the data set on Trypanosoma cruzi [1] is 2 µM; in [2], 25.1 µM; in the data set on Leishmania donovani [3], 25.1 µM; in the data set on Trypanosoma cruzi [5], 0.501 µM; in the data set on Leishmania donovani [6] it was 5.01 µM; with Trypanosoma cruzi [7], greater than 50.1 µM. The IC50 in the data set with NIH3T3 was 31.6 µM; in data set [8], greater than 39.8 µM; in data set [9], greater than 100 µM; with Leishmania donovani [10], 20 µM; with Leishmania donovani [11], 20 µM; with Trypanosoma cruzi [12], 2 µM. The IC50 at 48 h in data set [4] is 63.1 µM.
In the case of `CCC1Oc2cc(S(=O)(=O)N(C)CC(=O)N3CCc4ccccc4C3)c(C)cc2NC1=O` (stereo not given), the half-inhibitory concentration (IC50) in the data set on Trypanosoma cruzi [1] was 0.251 µM; in data set [2], 25.1 µM; in the data set with Leishmania donovani [3], greater than 50.1 µM; with Trypanosoma cruzi [5], 0.251 µM; in the data set with Leishmania donovani [6], greater than 50.1 µM; in the data set on Trypanosoma cruzi [7] it was greater than 50.1 µM. Also, the IC50 in the data set on NIH3T3 is greater than 50.1 µM; in [8], 31.6 µM; in [9] it was 0.794 µM; in the data set with Leishmania donovani [10], 31.6 µM; in the data set on Leishmania donovani [11] it was greater than 50.1 µM; in the data set on Trypanosoma cruzi [12], 0.2 µM. The same compound gave a half-maximal inhibitory concentration (IC50) at 48 h in [4] greater than 100 µM.
In the case of `Cc1nc(N2CCC(C(=O)N3CCC(O)(c4cccnc4)CC3)CC2)nc2ccc(C(C)C)cc12`, the half-maximal inhibitory concentration (IC50) in the data set with Trypanosoma cruzi [1] was 0.316 µM; in data set [2], 20 µM; in the data set with Leishmania donovani [3] it was 50.1 µM; in the data set with Trypanosoma cruzi [5], 0.398 µM; with Leishmania donovani [6] it was 25.1 µM; with Trypanosoma cruzi [7], 39.8 µM. The half-inhibitory concentration (IC50) with NIH3T3 is 25.1 µM; in data set [8] it was 31.6 µM; in data set [9] it was 0.126 µM; in the data set on Leishmania donovani [10], 10 µM; in the data set on Leishmania donovani [11] it was greater than 50.1 µM; in the data set on Trypanosoma cruzi [12] it was 1.58 µM. The midpoint of inhibition in data set [4], the IC50 at 48 h, lay at 79.4 µM.
